From article PMC6718478, “A Comprehensive Antimicrobial Activity Evaluation of the Recombinant Microcin J25 Against the Foodborne Pathogens Salmonella and E. coli O157:H7 by Using a Matrix of Conditions” (Frontiers in Microbiology, 2019)
Positions of bridges follow the written chain, without caps; N, C: chain ends. Residues, ends and D or L forms follow the SMILES beside them.

Key:
[1] = system: S. Pullorum; test: SEM of cell membrane morphology; type: cell-based, Salmonella Pullorum; conditions: 1 or 4 × MIC for 1 h at 37°C; ~2 × 10^6 cells
Description: To assess the alteration of S. Pullorum cell membrane morphology and ultrastructure, SEM and TEM were performed as described previously, with minor modifications ([Wang et al., 2017]; [Meng et al., 2019]). For SEM sample preparation, approximately 2 × 10^6 S. Pullorum cells were incubated at 37°C for 1 h with the recombinant MccJ25 at 1× and 4 × MIC levels. The control was performed without the recombinant MccJ25. After incubation, the cells were harvested, mixed and centrifuged at 8,000 × g for 3 min. The bacterial pellets were washed three times in PBS and centrifuged at 3,000 × g for 10 min. The bacterial cells were resuspended in 500 μL of PBS and supplemented with 2.5% fresh glutaraldehyde at 4°C overnight. Thereafter, the bacterial pellets were postfixed in 1% osmium tetroxide, dehydrated, and coated with gold-palladium. They were observed by SEM (EVO MA10 XVP, Carl Zeiss).

[2] = system: E. coli O157:H7; test: Antimicrobial activity (killing) curves; type: cell-based, Escherichia coli; conditions: 4 × MIC; log phase, ~5 × 10^4 CFU/mL in LB, 37°C; plate counts at 0, 2, 4, 6 h; n = 6
Description: To further address the activity of recombinant MccJ25, antimicrobial activity curves and Live/Dead viability assay were performed. A single colony of S. Pullorum CVCC1791, S. Typhimurium ATCC14082, and E. coli O157:H7 was inoculated into 5 mL of LB. The culture was then incubated at 37°C with shaking at 200 rpm overnight. The following day, the culture was diluted 1:100 in fresh LB and again incubated at 37°C with shaking at 200 rpm. For antimicrobial activity, the bacteria were grown until they reached log phase. Approximately 5 × 10^4 CFU/mL bacteria were inoculated into 2 mL of LB containing different concentrations of the recombinant MccJ25 (0, 1 × MIC, 2 × MIC, and 4 × MIC). The cultures (0.1 mL) were serially diluted with PBS and plated on LB and TSA agar at 0, 2, 4, and 6 h. The plates were incubated at 37°C overnight to count colony. Colonies were counted to determine CFU/mL. The experiment was conducted with two replicates in three independent trials.

[3] = system: S. Typhimurium; test: Live/Dead BacLight viability assay; type: cell-based, Salmonella Typhimurium; conditions: at the MIC level, 2 h at 37°C, 5 × 10^4 CFU/mL in LB; fluorescence microscopy
Description: (§1) A Live/Dead BacLight Bacterial Viability Kit 7 (Molecular Probes, Inc., Eugene) was used to test bacterial viability. Briefly, 5 × 10^4 CFU/mL S. Pullorum, S. Typhimurium, and E. coli O157:H7 were inoculated into 1 mL of LB containing recombinant MccJ25 at the MIC level specific for each pathogen. Bacterial cultures were incubated at 37°C for 2 h and then incubated in the dark at ambient temperature with SYTO 9 and propidium iodide for 15 min. Bacteria were observed using a fluorescence microscope (EVOS XL Cell Imaging System).

[4] = system: S. Typhimurium; test: Antimicrobial activity in different growth phases, viable plate counting; type: cell-based, Salmonella Typhimurium; conditions: LB, plate counts, n = 6; for time within which bacteria were killed: early and late-log phase cells
Description: The effect of growth phase on the anti-Salmonella and -E. coli O157:H7 activity of recombinant MccJ25 was determined by the viable plate counting method, as described previously ([Ma et al., 2016]; [Fan et al., 2017]), with minor modifications. Cultures of the strains in the early-log phase, late-log phase and stationary phase were washed, concentrated and diluted with sterilized phosphate-buffered saline (PBS) to approximately 10^7 CFU/mL. Then, 1 mL was incubated individually in 9 mL of PBS to reach an approximate 10^6 CFU/mL final concentration. The bacterial cells were then inoculated into 5 mL of LB containing different concentrations of MccJ25 (0, 1 × MIC, 2 × MIC, and 4 × MIC). At 0, 12, 24, and 48 h post incubation, the cultures (0.1 mL) were serially diluted with PBS and plated on LB and TSA agar. The plates were incubated at 37°C overnight to count colony. Colonies were counted to determine CFU/mL. The experiment was conducted with two replicates in three independent trials.

[5] = system: E. coli O157:H7; test: Live/Dead BacLight viability assay; type: cell-based, Escherichia coli; conditions: at the MIC level, 2 h at 37°C, 5 × 10^4 CFU/mL in LB; fluorescence microscopy
Description: as §1

[6] = system: S. Pullorum; test: Antimicrobial activity in biological food products (skim milk, egg yolk, mincemeat extract); type: cell-based, Salmonella Pullorum; conditions: 4 × MIC, 37°C; for viable bacteria after 24 h in the three food products: SKM, SEY, SMS, data not shown; for CFU reduction after 24 h: inoculum 10^6 CFU/mL, 250 rpm, plate counts, n = 6
Description: To further investigate the effects of recombinant MccJ25 on Salmonella and E. coli O157:H7 in different biological food products, sterile skim milk, egg yolk and mincemeat (pork) extract were collected and used as described previously with minor modifications ([Sable et al., 2000]). The skim milk, egg and mincemeat samples were purchased from a Carrefour store in Beijing. Specimens were kept on ice packs in coolers until they reached the laboratory, where they were stored at 4°C. The skim milk (SKM) and mincemeat supernatant (SMS) were autoclave sterilized at 121°C for 20 min. After autoclaving, the SKM and SMS samples were stored at 4°C for further use. The eggs were sterilized with 75% ethanol and transferred into an exceptionally clean bench to collect the egg yolk (SEY). The SEY was diluted 1:1 with sterile distilled water. Biological product samples were mixed with a final concentration of 4 × MIC of recombinant MccJ25 solution in sterile saline water (0.85%). They were then inoculated with S. Pullorum, S. […] Sterilized saline water (SSW) with the recombinant MccJ25 was utilized for comparison. This assay was performed to obtain the desired quantity of cells. The mixtures were tested after 24 h of incubation at 37°C with shaking (250 rpm). After incubation, Salmonella species and E. coli O157:H7 were serially diluted with PBS and plated on LB and TSA agar. The plates were incubated at 37°C overnight to count colony. Colonies were counted to determine CFU/mL. The experiment was conducted with two replicates in three independent trials.

CC[C@H](C)[C@H](NC(=O)CNC(=O)[C@@H](NC(=O)[C@H](Cc1ccccc1)NC(=O)[C@H](Cc1ccc(O)cc1)NC(=O)[C@@H]1CCC(=O)NCC(=O)NCC(=O)N[C@@H](C)C(=O)NCC(=O)N[C@@H](Cc2c[nH]cn2)C(=O)N[C@@H](C(C)C)C(=O)N2CCC[C@H]2C(=O)N1)C(C)C)C(=O)NCC(=O)N[C@H](C(=O)N1CCC[C@H]1C(=O)N[C@H](C(=O)N[C@@H](CO)C(=O)N[C@@H](Cc1ccccc1)C(=O)N[C@@H](Cc1ccc(O)cc1)C(=O)NCC(=O)O)[C@@H](C)CC)[C@@H](C)O [recombinant MccJ25, microcin J25] (GGAGHVPEYFVGIGTPISFYG-OH; lactam N-8 (inferred); C-terminus assumed)
cell membrane morphology by SEM [1]: minimal membrane roughening, enlargement, and some filiferous adhesions in a small amount of cells
incubation time after which the pathogen was eliminated (killing curve) [2]: 6 h
bactericidal activity, Live/Dead staining (SYTO 9 / propidium iodide) [3]: excellent bactericidal activity
time within which bacteria were killed ([4]; 2 × MIC): ≤ 48 h
time within which bacteria were killed ([4]; 4 × MIC): ≤ 24 h
time to reduction to non-detectable levels ([4]; stationary phase cells, 4 × MIC): 48 h
bactericidal activity, Live/Dead staining (SYTO 9 / propidium iodide) [5]: excellent bactericidal activity
viable bacteria after 24 h in the three food products ([6]; inoculum 10^3 CFU/mL): no viable bacteria were detected
viable bacteria after 24 h in the three food products ([6]; inoculum 10^4 CFU/mL): no bacteria were detected
CFU reduction after 24 h ([6]; sterilized egg yolk (SEY), diluted 1:1): ~8 × 10^3 CFU/mL
CFU reduction after 24 h ([6]; sterilized mincemeat supernatant (SMS)): ~7 × 10^3 CFU/mL
CFU reduction after 24 h ([6]; sterilized skim milk (SKM)): approximately 10^4 CFU/mL
